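Briefly, cells in 96-well plates were exposed to five compound concentrations for 48 h, and endpoints were estimated by linear interpolation. At the TGI there is no net growth.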
What was measured:
Assay in all cases: NCI anticancer screen, dose series, 48 h
[1] = test system: OVCAR-8 ovarian
[2] = test system: TK-10 renal
[3] = test system: MDA-MB-435
[4] = test system: MOLT-4 leukemia
[5] = test system: NCI-H460 lung
[6] = test system: LOX IMVI melanoma
[7] = test system: A549 NSCLC
[8] = test system: UACC-257 melanoma
[9] = test system: SNB-75 CNS
[10] = test system: MDA-N
[11] = test system: HL-60(TB) leukemia
[12] = test system: OVCAR-3 ovarian
[13] = test system: UO-31 renal
[14] = test system: MCF7 breast
[15] = test system: SK-OV-3 ovarian
[16] = test system: HT29 colon
[17] = test system: 786-0 renal
[18] = test system: EKVX NSCLC

Measured: TGI

CCOP(=O)(OCC)C1=C(c2ccccc2)OC(N)=C(C#N)C1c1ccc(Cl)cc1 (stereo not drawn)
> 100 µM: [1] | [2] | [3] | [4] | [5] | [6] | [7] | [8] | [9] | [10] | [11] | [12] | [13] | [14] | [15] | [16] | [17] | [18]
